Patent US6395288B1, “Subversion of bacterial resistance by low solubility antibiotics” (Kent State University, priority 1998, dated 2002)

Assays:
[1] = Local (cellular) toxicity in vitro, fluorescein assay; conditions: FS-TET disks at solubility limit (TET-HCl 20 mg/mL, TET free base 1 mg/mL)
[2] = system: MDR isotype of S. aureus (ATCC 27659); experiment: Agar diffusion zone of growth inhibition, antibiotics delivered from fibrin sealant; format: cell-based, Staphylococcus aureus; conditions: in vitro, 6 mm wells filled with fibrin sealant with antibiotic, 18 h at 37° C., FIG. 2
Experimental: The method used was that of Barry,Am. Journal of Clinical Pathology, 53:149 (1970), incorporated herein by reference, with modifications. Briefly, antibiotic bioactivity was assessed by agar diffusion where the agar hydrogel was seeded with bacteria prior to solidification. Several 6 mm wells were cut into the agar, the plugs were removed by aspiration and the wells were filled with the fibrin sealant hydrogel containing various concentrations of low-solubility antibiotics. Cultures were incubated for 18 h at 37° C. Zones of growth inhibition—the area about the well where diffused antibiotic prevents growth of seeded bacteria—were recorded to the nearest mm and graphed in FIG. 2. The zone of inhibition required to document bacterial susceptibility to a particular concentration of antibiotic is indicated by a black horizontal bar. […] Moreover, increasing the local concentration of low solubility antibiotics released from fibrin sealant effectively overcomes S. aureus resistance in vitro.

[3] = system: non-multi-drug resistant (NMDR) peritonitis; experiment: Prophylactic protection against lethal NMDR peritonitis in mice; format: in vivo; conditions: prophylactic treatment, 500 mg/kg

For `CN(C)[C@@H]1C(=O)C(C(N)=O)=C(O)[C@@]2(O)C(=O)C3=C(O)c4c(O)cccc4[C@@](C)(O)[C@H]3C[C@@H]12.Cl` [TET-HCl], which “local (cellular) toxicity, fluorescein assay” value [1] is on record?
Its value is “acutely toxic”.

Which “growth inhibition (zone of growth inhibition)” value [2] does the source give for `[H]/N=C(/N)N[C@H]1[C@H](O)[C@@H](O)[C@H](O[C@@H]2O[C@@H](C)[C@](O)(C=O)[C@H]2O[C@@H]2O[C@@H](CO)[C@H](O)[C@@H](O)[C@@H]2NC)[C@@H](N/C(N)=N\[H])[C@@H]1O` [streptomycin] here?
The value was “appeared effective in vitro”.

For `CN(C)[C@@H]1C(O)=C(C(N)=O)C(=O)[C@@]2(O)C(O)=C3C(=O)c4c(O)cccc4[C@@](C)(O)[C@H]3C[C@@H]12` [tetracycline], which “protection against a lethal dose of NMDR peritonitis” value [3] is on record?
Its value is 100%.
